Drawing on patent US9040545B2, “Heterocyclyl pyrazolopyrimidine analogues as selective JAK inhibitors” (Cellzome Limited, priority 2010, dated 2015), this text covers IC50 for 23 compounds.

SMILES strings stand for the structures.

One assay addresses T1, JAK2 (Homo sapiens, UniProt O60674).
T1 construct: endogenous in cells; host or cells: mixed Molt4/Ramos lysate (1:2)
Description: Kinobeads assay, JAK2. The assay is classed as binding. The conditions noted are these: mixed Molt4/Ramos lysate, read-out: Inhibition values (IC50) JAK2. The method in brief: (§1)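 IC50 values come from dose-response curves of JAK2/JAK3 captured on immobilized aminopyrido-pyrimidine beads, quantified by antibody dot blot with infrared read-out. Compounds (1:3 series, 9 steps, from 5 mM DMSO stock) competed for 3 h in the cold with mixed Molt4/Ramos lysate (1:2, 10 mg/mL protein).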

For another assay, the target named is T2, JAK3 (Homo sapiens, UniProt P52333).
T2 construct: endogenous in cells; host or cells: mixed Molt4/Ramos lysate (1:2)
T2 sequence (P52333 1-1124): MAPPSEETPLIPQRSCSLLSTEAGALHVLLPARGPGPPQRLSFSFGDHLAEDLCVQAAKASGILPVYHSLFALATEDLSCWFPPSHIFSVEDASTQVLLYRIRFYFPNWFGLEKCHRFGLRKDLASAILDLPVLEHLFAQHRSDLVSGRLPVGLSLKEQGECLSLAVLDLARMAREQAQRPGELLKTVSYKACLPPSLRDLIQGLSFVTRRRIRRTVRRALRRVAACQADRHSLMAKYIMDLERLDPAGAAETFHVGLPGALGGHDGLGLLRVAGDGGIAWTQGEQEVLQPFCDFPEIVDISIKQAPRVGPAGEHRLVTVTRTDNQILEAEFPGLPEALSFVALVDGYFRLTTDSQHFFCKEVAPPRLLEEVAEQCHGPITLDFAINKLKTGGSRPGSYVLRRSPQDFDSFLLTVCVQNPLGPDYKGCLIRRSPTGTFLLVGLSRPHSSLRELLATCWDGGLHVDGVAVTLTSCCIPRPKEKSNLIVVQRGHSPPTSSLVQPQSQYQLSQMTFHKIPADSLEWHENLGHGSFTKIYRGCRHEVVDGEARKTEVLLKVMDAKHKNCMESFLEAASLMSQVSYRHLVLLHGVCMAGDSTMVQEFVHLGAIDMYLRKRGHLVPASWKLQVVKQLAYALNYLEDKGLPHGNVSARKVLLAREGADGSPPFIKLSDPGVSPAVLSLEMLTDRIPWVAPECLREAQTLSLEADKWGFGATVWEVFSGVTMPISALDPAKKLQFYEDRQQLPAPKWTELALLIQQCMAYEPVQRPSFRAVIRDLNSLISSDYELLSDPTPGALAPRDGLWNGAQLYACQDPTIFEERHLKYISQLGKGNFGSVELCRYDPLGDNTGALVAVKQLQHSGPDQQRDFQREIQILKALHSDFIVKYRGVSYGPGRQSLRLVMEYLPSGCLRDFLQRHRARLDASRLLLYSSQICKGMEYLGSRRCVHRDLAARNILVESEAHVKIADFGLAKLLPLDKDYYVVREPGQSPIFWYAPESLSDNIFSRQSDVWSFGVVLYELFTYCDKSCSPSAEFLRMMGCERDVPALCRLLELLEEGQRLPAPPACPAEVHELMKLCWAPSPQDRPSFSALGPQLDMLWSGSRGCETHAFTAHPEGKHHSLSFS
Description: Kinobeads assay, JAK3. The assay is classed as binding. The conditions noted are these: mixed Molt4/Ramos lysate, read-out: Inhibition values (IC50) JAK3. The method in brief: as §1

T1 sequence (O60674 whole entry): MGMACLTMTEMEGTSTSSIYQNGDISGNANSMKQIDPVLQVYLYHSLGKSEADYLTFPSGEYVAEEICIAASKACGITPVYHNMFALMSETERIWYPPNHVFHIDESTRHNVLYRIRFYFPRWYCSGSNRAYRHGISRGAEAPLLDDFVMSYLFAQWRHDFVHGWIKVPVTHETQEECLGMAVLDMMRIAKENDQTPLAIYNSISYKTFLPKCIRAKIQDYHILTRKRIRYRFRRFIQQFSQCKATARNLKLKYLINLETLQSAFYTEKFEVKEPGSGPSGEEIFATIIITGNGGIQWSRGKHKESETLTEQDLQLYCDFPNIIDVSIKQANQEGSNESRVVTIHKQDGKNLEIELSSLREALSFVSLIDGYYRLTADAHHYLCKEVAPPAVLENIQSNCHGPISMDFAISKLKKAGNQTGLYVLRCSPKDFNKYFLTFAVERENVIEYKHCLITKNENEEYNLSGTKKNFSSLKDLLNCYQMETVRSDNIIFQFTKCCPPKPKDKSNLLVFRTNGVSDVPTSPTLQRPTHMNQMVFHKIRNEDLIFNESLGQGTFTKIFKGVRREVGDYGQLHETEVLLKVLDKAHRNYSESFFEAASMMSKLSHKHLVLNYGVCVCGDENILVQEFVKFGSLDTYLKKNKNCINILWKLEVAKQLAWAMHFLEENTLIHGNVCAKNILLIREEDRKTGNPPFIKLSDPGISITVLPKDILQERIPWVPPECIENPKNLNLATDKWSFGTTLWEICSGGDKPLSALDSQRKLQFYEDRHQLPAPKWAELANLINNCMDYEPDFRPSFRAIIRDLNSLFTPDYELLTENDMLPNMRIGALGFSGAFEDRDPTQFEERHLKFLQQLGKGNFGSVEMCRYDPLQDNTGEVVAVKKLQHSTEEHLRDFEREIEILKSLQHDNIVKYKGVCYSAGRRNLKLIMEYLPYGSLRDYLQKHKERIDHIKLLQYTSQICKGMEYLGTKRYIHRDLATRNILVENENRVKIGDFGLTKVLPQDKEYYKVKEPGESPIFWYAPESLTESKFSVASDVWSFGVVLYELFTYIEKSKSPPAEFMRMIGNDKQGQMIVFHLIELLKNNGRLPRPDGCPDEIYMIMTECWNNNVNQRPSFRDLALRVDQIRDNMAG

The term IC50 denotes the concentration that inhibits the measured activity by half. On to `Cn1cc(Nc2ncc3cnn(Cc4cccc(N5CCC6(COC6)C5)c4)c3n2)cn1` [Example 104, 1-(3-(2-oxa-6-azaspiro[3.4]octan-6-yl)benzyl)-N-(1-methyl-1H-pyrazol-4-yl)-1H-pyrazolo[3,4-d]pyrimidin-6-amine], for which the results for the IC50 on JAK2 and at JAK3 were not below 10000 nM and 100 to 1000 nM, respectively.

As for `Cn1cc(Nc2ncc3cnn(Cc4cccc(N5CCN(S(C)(=O)=O)CC5)c4)c3n2)cn1` [Example 100, N-(1-methyl-1H-pyrazol-4-yl)-1-(3-(4-(methylsulfonyl)piperazin-1-yl)benzyl)-1H-pyrazolo[3,4-d]pyrimidin-6-amine], the IC50 at JAK2 is not below 10000 nM; at JAK3, less than 100 nM.

`Cn1cc(Nc2ncc3cnn(Cc4cccc(-c5cnn(CCO)c5)c4)c3n2)cn1` [Example 121, 2-(4-(3-((6-((1-methyl-1H-pyrazol-4-yl)amino)-1H-pyrazolo[3,4-d]pyrimidin-1-yl)methyl)phenyl)-1H-pyrazol-1-yl)ethanol]: the figures for the IC50 on JAK2 and on JAK3 were 1000 to 10000 nM and less than 100 nM, respectively.

Turning to `Cn1cc(Nc2ncc3cnn(Cc4cccc(N5CCNCC5)c4)c3n2)cn1` [Example 22, N-(1-Methyl-1H-pyrazol-4-yl)-1-(3-(piperazin-1-yl)benzyl)-1H-pyrazolo[3,4-d]pyrimidin-6-amine], the IC50 is 1000 to 10000 nM on JAK2 and less than 100 nM at JAK3.

As for `Cn1cc(Nc2ncc3cnn(Cc4cc(N5CCOCC5)cc(F)c4F)c3n2)cn1` [Example 37, 1-(2,3-Difluoro-5-morpholinobenzyl)-N-(1-methyl-1H-pyrazol-4-yl)-1H-pyrazolo[3,4-d]pyrimidin-6-amine], the values for the IC50 on JAK2 and on JAK3 were not below 10000 nM and 100 to 1000 nM, respectively.

As to `Cn1cc(Nc2ncc3cnn(Cc4cc(F)cc(N5CCNCC5)c4)c3n2)cn1` [Example 92, 1-(3-fluoro-5-(piperazin-1-yl)benzyl)-N-(1-methyl-1H-pyrazol-4-yl)-1H-pyrazolo[3,4-d]pyrimidin-6-amine], the IC50 at JAK2 was 1000 to 10000 nM; on JAK3, less than 100 nM.

On to `Fc1cc(N2CCOCC2)c(F)c(Cn2ncc3cnc(Nc4cnn(CC5CCNC5)c4)nc32)c1F` (stereo not shown) [Example 94, N-(1-(pyrrolidin-3-ylmethyl)-1H-pyrazol-4-yl)-1-(2,3,6-trifluoro-5-morpholinobenzyl)-1H-pyrazolo[3,4-d]pyrimidin-6-amine], for which the IC50 on JAK2 was 1000 to 10000 nM; at JAK3 it was less than 100 nM.

`O=C(Cn1cc(Nc2ncc3cnn(Cc4cc(F)cc(N5CCOCC5=O)c4)c3n2)cn1)N1CCNCC1` [Example 109, 4-(3-fluoro-5-((6-((1-(2-oxo-2-(piperazin-1-yl)ethyl)-1H-pyrazol-4-yl)amino)-1H-pyrazolo[3,4-d]pyrimidin-1-yl)methyl)phenyl)morpholin-3-one]: the IC50 at JAK2 is 1000 to 10000 nM; at JAK3, less than 100 nM.

With `Cn1cc(Nc2ncc3cnn(Cc4cc(C(=O)N5CCOCC5)cc(F)c4F)c3n2)cn1` [Example 98, (3,4-difluoro-5-((6-((1-methyl-1H-pyrazol-4-yl)amino)-1H-pyrazolo[3,4-d]pyrimidin-1-yl)methyl)phenyl)(morpholino)methanone], the IC50 was 1000 to 10000 nM on JAK2 and less than 100 nM at JAK3.

As to `Cn1cc(Nc2ncc3cnn(Cc4cc(N5CCOCC5)ccc4F)c3n2)cn1` [Example 15, 1-(2-Fluoro-5-morpholinobenzyl)-N-(1-methyl-1H-pyrazol-4-yl)-1H-pyrazolo[3,4-d]pyrimidin-6-amine], the IC50 was not below 10000 nM on JAK2 and 100 to 1000 nM on JAK3.

As to `Cn1cc(Nc2ncc3cnn(Cc4cccc(N5CCOCC5)c4)c3n2)cn1` [Example 2, N-(1-Methyl-1H-pyrazol-4-yl)-1-(3-morpholinobenzyl)-1H-pyrazolo[3,4-d]pyrimidin-6-amine], the values for the IC50 at JAK2 and at JAK3 were 1000 to 10000 nM and less than 100 nM, respectively.

With `O=C1CC(Cn2cc(Nc3ncc4cnn(Cc5cc(F)cc(N6CCOCC6=O)c5)c4n3)cn2)CN1` (stereo not shown) [Example 105, 4-(3-fluoro-5-((6-((1-((5-oxopyrrolidin-3-yl)methyl)-1H-pyrazol-4-yl)amino)-1H-pyrazolo[3,4-d]pyrimidin-1-yl)methyl)phenyl)morpholin-3-one], the values for the IC50 at JAK2 and on JAK3 were 1000 to 10000 nM and less than 100 nM, respectively.

With `O=C1COCCN1c1cc(F)cc(Cn2ncc3cnc(Nc4cnn(C5CCNCC5)c4)nc32)c1` [Example 102, 4-(3-fluoro-5-((6-((1-(piperidin-4-yl)-1H-pyrazol-4-yl)amino)-1H-pyrazolo[3,4-d]pyrimidin-1-yl)methyl)phenyl)morpholin-3-one], the IC50 on JAK2 was 100 to 1000 nM; on JAK3, less than 100 nM.

With `C[C@H]1COCCN1c1cccc(Cn2ncc3cnc(Nc4cnn(C)c4)nc32)c1` [Example 112, (S)-N-(1-methyl-1H-pyrazol-4-yl)-1-(3-(3-methylmorpholino)benzyl)-1H-pyrazolo[3,4-d]pyrimidin-6-amine], the IC50 at JAK2 is not below 10000 nM; on JAK3 it was less than 100 nM.

As to `O=C1COCCN1c1cc(F)cc(Cn2ncc3cnc(Nc4cnn(CCS(=O)(=O)NC5CC5)c4)nc32)c1` [Example 106, N-cyclopropyl-2-(4-((1-(3-fluoro-5-(3-oxomorpholino)benzyl)-1H-pyrazolo[3,4-d]pyrimidin-6-yl)amino)-1H-pyrazol-1-yl)ethanesulfonamide], the IC50 at JAK2 was 1000 to 10000 nM; at JAK3, less than 100 nM.

`C[C@@H]1COCCN1c1cccc(Cn2ncc3cnc(Nc4cnn(C)c4)nc32)n1` [Example 1, (R)—N-(1-Methyl-1H-pyrazol-4-yl)-1-((6-(3-methylmorpholino)pyridin-2-yl)methyl)-1H-pyrazolo[3,4-d]pyrimidin-6-amine]: the IC50 on JAK2 is not below 10000 nM; at JAK3, less than 100 nM.

Consider `CN(C)CC1(Cn2cc(Nc3ncc4cnn(Cc5cccc(N6CCOCC6)c5)c4n3)cn2)COC1` [Example 31, N-(1-((3-((Dimethylamino)methyl)oxetan-3-yl)methyl)-1H-pyrazol-4-yl)-1-(3-morpholinobenzyl)-1H-pyrazolo[3,4-d]pyrimidin-6-amine], for which the IC50 on JAK2 is not below 10000 nM; at JAK3 it was less than 100 nM.

With `NCCCn1cc(Nc2ncc3cnn(Cc4cccc(N5CCOCC5)c4)c3n2)cn1` [Example 34, N-(1-(3-Aminopropyl)-1H-pyrazol-4-yl)-1-(3-morpholinobenzyl)-1H-pyrazolo[3,4-d]pyrimidin-6-amine], the IC50 at JAK2 was not below 10000 nM; on JAK3, less than 100 nM.

`O=C1COCCN1c1cccc(Cn2ncc3cnc(Nc4cnn(CCO)c4)nc32)c1` [Example 29, 4-(3-((6-((1-(2-Hydroxyethyl)-1H-pyrazol-4-yl)amino)-1H-pyrazolo[3,4-d]pyrimidin-1-yl)methyl)phenyl)morpholin-3-one]: the concentration for half-maximal inhibition (IC50) on JAK2 is not below 10000 nM; on JAK3 it was less than 100 nM.

`Cn1cc(Nc2ncc3cnn(Cc4cccc(N5CC6(COC6)C5)c4F)c3n2)cn1` [Example 91, 1-(2-fluoro-3-(2-oxa-6-azaspiro[3.3]heptan-6-yl)benzyl)-N-(1-methyl-1H-pyrazol-4-yl)-1H-pyrazolo[3,4-d]pyrimidin-6-amine]: the figures for the IC50 on JAK2 and on JAK3 were 1000 to 10000 nM and less than 100 nM, respectively.

Regarding `Cn1cc(Nc2ncc3cnn(Cc4cc(F)cc(-c5cnn(C)c5)c4)c3n2)cn1` [Example 125, 1-(3-fluoro-5-(1-methyl-1H-pyrazol-4-yl)benzyl)-N-(1-methyl-1H-pyrazol-4-yl)-1H-pyrazolo[3,4-d]pyrimidin-6-amine], the results for the IC50 on JAK2 and on JAK3 were 100 to 1000 nM and less than 100 nM, respectively.

Take `CNC(=O)CCn1cc(Nc2ncc3cnn(Cc4cccc(N5CCOCC5)c4)c3n2)cn1` [Example 24, N-Methyl-3-(4-((1-(3-morpholinobenzyl)-1H-pyrazolo[3,4-d]pyrimidin-6-yl)amino)-1H-pyrazol-1-yl)propanamide]: the results for the IC50 on JAK2 and at JAK3 were not below 10000 nM and less than 100 nM, respectively.

With `Cn1cc(Nc2ncc3cnn(Cc4cccc(-c5cn[nH]c5)c4)c3n2)cn1` [Example 118, 1-(3-(1H-pyrazol-4-yl)benzyl)-N-(1-methyl-1H-pyrazol-4-yl)-1H-pyrazolo[3,4-d]pyrimidin-6-amine], the values for the IC50 at JAK2 and on JAK3 were not below 10000 nM and less than 100 nM, respectively.
